Laboratory results reported in the supplement of paper PMC10307832.

How the values were obtained:
Test in all cases: relative viability (nuclei count vs DMSO), 5 days (fraction); higher = more cells survive
17-AAG + Luminespib = compound: C=CCNC1=C2C[C@@H](C)C[C@H](OC)[C@H](O)[C@@H](C)/C=C(\C)[C@H](OC(N)=O)[C@@H](OC)/C=C\C=C(/C)C(=O)NC(=CC1=O)C2=O [17-AAG] + CCNC(=O)c1noc(-c2cc(C(C)C)c(O)cc2O)c1-c1ccc(CN2CCOCC2)cc1 [Luminespib] (partner 0.01 µM)
Outline: (§1)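 Nuclei were stained with Hoechst during a one-step fixation (final 0.05% Triton X-100, 1% formaldehyde, 1 ug/ml Hoechst) carried out 5 days after dosing, then counted on 4× images. The cells, lung cancer lines in 1536-well plates, had been dosed by pin tool the day after seeding with one drug alone or a fixed anchor-drug dose plus five library-drug doses (not always all listed) in √10 steps. Relative viability is the nuclei count in treated wells divided by that in vehicle wells, and each value is the median of duplicate plates.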

17-AAG + Foretinib = compound: C=CCNC1=C2C[C@@H](C)C[C@H](OC)[C@H](O)[C@@H](C)/C=C(\C)[C@H](OC(N)=O)[C@@H](OC)/C=C\C=C(/C)C(=O)NC(=CC1=O)C2=O [17-AAG] + COc1cc2c(Oc3ccc(NC(=O)C4(C(=O)Nc5ccc(F)cc5)CC4)cc3F)ccnc2cc1OCCCN1CCOCC1 [Foretinib] (partner 0.25 µM)
Outline: as §1

17-AAG + Tozasertib = compound: C=CCNC1=C2C[C@@H](C)C[C@H](OC)[C@H](O)[C@@H](C)/C=C(\C)[C@H](OC(N)=O)[C@@H](OC)/C=C\C=C(/C)C(=O)NC(=CC1=O)C2=O [17-AAG] + Cc1cc(Nc2cc(N3CCN(C)CC3)nc(Sc3ccc(NC(=O)C4CC4)cc3)n2)n[nH]1 [Tozasertib] (partner 0.1 µM)
Outline: as §1

17-AAG + AZD7762 = compound: C=CCNC1=C2C[C@@H](C)C[C@H](OC)[C@H](O)[C@@H](C)/C=C(\C)[C@H](OC(N)=O)[C@@H](OC)/C=C\C=C(/C)C(=O)NC(=CC1=O)C2=O [17-AAG] + NC(=O)Nc1cc(-c2cccc(F)c2)sc1C(=O)N[C@H]1CCCNC1 [AZD7762] (partner 0.2 µM)
Outline: as §1

Row | Cell Line | relative viability (17-AAG + Luminespib; first compound 0.00128 µM) | relative viability (17-AAG + Luminespib; first compound 0.004048 µM) | relative viability (17-AAG + Luminespib; first compound 0.0128 µM) | relative viability (17-AAG + Luminespib; first compound 0.04048 µM) | relative viability (17-AAG + Luminespib; first compound 0.128 µM) | relative viability (17-AAG + Foretinib; first compound 0.00128 µM) | relative viability (17-AAG + Foretinib; first compound 0.004048 µM) | relative viability (17-AAG + Foretinib; first compound 0.0128 µM) | relative viability (17-AAG + Foretinib; first compound 0.04048 µM) | relative viability (17-AAG + Foretinib; first compound 0.128 µM) | relative viability (17-AAG + Tozasertib; first compound 0.00128 µM) | relative viability (17-AAG + Tozasertib; first compound 0.004048 µM) | relative viability (17-AAG + Tozasertib; first compound 0.0128 µM) | relative viability (17-AAG + Tozasertib; first compound 0.04048 µM) | relative viability (17-AAG + Tozasertib; first compound 0.128 µM) | relative viability (17-AAG + AZD7762; first compound 0.00128 µM) | relative viability (17-AAG + AZD7762; first compound 0.004048 µM) | relative viability (17-AAG + AZD7762; first compound 0.0128 µM) | relative viability (17-AAG + AZD7762; first compound 0.04048 µM) | relative viability (17-AAG + AZD7762; first compound 0.128 µM)
1 | NCI-H838 | 0.192 | 0.196 | 0.151 | 0.157 | 0.12 | 0.965 | 0.977 | 0.667 | 0.178 | 0.158 | 0.315 | 0.309 | 0.161 | 0.135 | 0.134 | 0.978 | 0.849 | 0.669 | 0.633 | 0.604
2 | NCI-H1355 | 0.649 | 0.685 | 0.457 | 0.337 | 0.18 | 0.938 | 0.97 | 0.91 | 0.843 | 0.328 | 0.554 | 0.583 | 0.543 | 0.555 | 0.167 | 0.795 | 0.682 | 0.311 | 0.236 | 0.144
3 | NCI-H1395 | 0.638 | 0.535 | 0.329 | 0.359 | 0.331 | 0.963 | 0.988 | 0.843 | 0.396 | 0.318 | 0.625 | 0.698 | 0.694 | 0.408 | 0.342 | 0.415 | 0.431 | 0.395 | 0.34 | 0.337
4 | NCI-H1437 | 1.09 | 0.818 | 0.631 | 0.206 | 0.19 | 1.21 | 1.22 | 1.09 | 0.259 | 0.193 | 0.4 | 0.477 | 0.296 | 0.311 | 0.164 | 1.1 | 1.07 | 0.651 | 0.271 | 0.201
5 | NCI-H1651 | 0.884 | 0.774 | 0.394 | 0.213 | 0.186 | 0.788 | 0.664 | 0.423 | 0.15 | 0.161 | 0.778 | 0.667 | 0.612 | 0.302 | 0.14 | 0.463 | 0.512 | 0.482 | 0.364 | 0.136
6 | NCI-H1666 | 1 | 0.86 | 0.474 | 0.296 | 0.342 | 1.04 | 0.963 | 0.587 | 0.383 | 0.341 | 0.589 | 0.599 | 0.46 | 0.343 | 0.294 | 0.725 | 0.902 | 0.531 | 0.35 | 0.292
7 | NCI-H1734 | 0.197 | 0.18 | 0.167 | 0.143 | 0.16 | 0.895 | 0.951 | 0.856 | 0.282 | 0.18 | 0.272 | 0.293 | 0.224 | 0.161 | 0.125 | 0.547 | 0.53 | 0.268 | 0.214 | 0.131
